Measurements as given in ChEMBL document CHEMBL1136590, “Synthesis, spectral studies and screening for amoebicidal activity of new palladium(II) complexes derived from thiophene-2-carboxaldehyde thiosemicarbazones” (Bioorg Med Chem Lett, 2003).

Tested on: Entamoeba histolytica
Test: In vitro amoebicidal activity against HM-1:1MMS strain of Entamoeba histolytica
Format: functional, organism-based

Molecule | IC50 (Entamoeba histolytica) [µM] | IC50 [µM]
Fc1ccc(/N=C(\S)N/N=C/c2cccs2)c(F)c1 | 6.18 | 
3,4-Dihydro-2H-quinoline-1-carbothioic acid thiophen-2-ylmethylene-hydrazide with PdCl2 complex |  | 1.15
Cc1ncc([N+](=O)[O-])n1CCO [METRONIDAZOLE] | 2.03 | 
Fc1cccc(F)c1/N=C(\S)N/N=C/c1cccs1 | 5.73 | 
S=C(NCc1ccccc1Cl)N/N=C/c1cccs1 | 5.74 | 
thiophene-2-carbaldehyde N-(2,4-difluorophenyl)thiosemicarbazone with PdCl2 complex |  | 2.65
S=C(N/N=C/c1cccs1)N1CCCc2ccccc21 | 2.78 | 
Di(methylsulfinyl)methane with PdCl2 complex |  | 8.24
thiophene-2-carbaldehyde N-(2-chlorobenzyl)thiosemicarbazone with PdCl2 complex |  | 3.06
thiophene-2-carbaldehyde N-(2,6-difluorophenyl)thiosemicarbazone with PdCl2 complex |  | 2.41
S=C(N/N=C/c1cccs1)N1CCCC1 | 3.2 | 
